The source of these data is patent publication US7279325B2, “Method for identifying antagonist compounds of the estrogen-related receptor 3 (ERR3) by using the x-ray structural coordinates of the ligand binding domain” (priority 2002, dated 2007).

Where a chain is given by its changes, count along the chain named. Entries after “also recorded” stand apart in the source; their conditions may differ.

The target of one test is T1, ERR1 (Homo sapiens, UniProt P11474).
T1 sequence (P11474 1-423): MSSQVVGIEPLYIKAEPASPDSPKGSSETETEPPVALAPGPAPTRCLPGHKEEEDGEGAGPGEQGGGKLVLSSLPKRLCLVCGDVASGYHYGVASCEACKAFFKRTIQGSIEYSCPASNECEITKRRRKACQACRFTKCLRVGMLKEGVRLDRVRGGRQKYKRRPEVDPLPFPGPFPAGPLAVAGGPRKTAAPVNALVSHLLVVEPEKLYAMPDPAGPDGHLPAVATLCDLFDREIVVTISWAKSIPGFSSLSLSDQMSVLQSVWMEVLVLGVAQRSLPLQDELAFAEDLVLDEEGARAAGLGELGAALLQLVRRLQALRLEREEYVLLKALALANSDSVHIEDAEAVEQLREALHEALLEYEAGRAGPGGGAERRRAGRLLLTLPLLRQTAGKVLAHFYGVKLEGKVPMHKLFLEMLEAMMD
As to conditions: Coward et al. (2001); cited from earlier work.

In test [1] the target is T2, ERR3 LBD/GST-SRC-1 RID complex (Homo sapiens, UniProt P62508).
T2 construct: wt or mutant ERR3 LBDs (residues 229 to 458, human and murine receptor are identical); made in house; host or cells: E. coli BL21(DE3)
T2 sequence (P62508 229-458): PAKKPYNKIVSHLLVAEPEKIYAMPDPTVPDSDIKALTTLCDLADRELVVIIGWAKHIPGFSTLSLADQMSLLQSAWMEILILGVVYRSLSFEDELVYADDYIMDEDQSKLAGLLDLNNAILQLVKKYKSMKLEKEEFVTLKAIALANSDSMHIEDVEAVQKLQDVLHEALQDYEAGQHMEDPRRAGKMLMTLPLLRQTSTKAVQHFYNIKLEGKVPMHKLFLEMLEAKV
The test is described as follows: In vitro protein-protein interaction assay, wt ERR3 LBD with SRC-1 RID (native gels). Type of test: biochemical. As to conditions: 10^−4M ligand. Here is the method: (§1) The His-tagged wt or mutant ERR3 LBDs, the GST-tagged SRC-1 RID, and GST were expressed in E. coli BL21(DE3) and partially purified by affinity chromatography using TALON (Clontech) or Glutathione Sepharose 4B (Pharmacia), respectively. […] After purification the proteins were dialyzed in assay buffer (20 mM Tris.HCl pH 8.0, 200 mM NaCl), and concentrated. For the protein-protein interaction assays […] (about 70 pmol) of His-tagged wt or mutant ERR3 LBD were mixed with […] (about 100 pmol) of GST-tagged SRC-1 RID or […] of GST and incubated on ice for 10 mins. […] Protein complexes were resolved on native polyacrylamide gradient gels (8%-25%) using the Phast System (Pharmacia).
(§2) In vitro interaction assays with the RID (amino acids 617-764) of the coactivator SRC-1 has first been performed. Hexahistidine (His)-tagged ERR3, LBD and GST-tagged SRC-1 RID were partially purified by affinity chromatography, the proteins were mixed, and complex formation was monitored on native polyacrylamide gels. […] Complexes were separated on native polyacrylamide gradient gels.

Another test deals with T3, ERR3 (Homo sapiens, UniProt P62508).
T3 sequence (P62508 1-458): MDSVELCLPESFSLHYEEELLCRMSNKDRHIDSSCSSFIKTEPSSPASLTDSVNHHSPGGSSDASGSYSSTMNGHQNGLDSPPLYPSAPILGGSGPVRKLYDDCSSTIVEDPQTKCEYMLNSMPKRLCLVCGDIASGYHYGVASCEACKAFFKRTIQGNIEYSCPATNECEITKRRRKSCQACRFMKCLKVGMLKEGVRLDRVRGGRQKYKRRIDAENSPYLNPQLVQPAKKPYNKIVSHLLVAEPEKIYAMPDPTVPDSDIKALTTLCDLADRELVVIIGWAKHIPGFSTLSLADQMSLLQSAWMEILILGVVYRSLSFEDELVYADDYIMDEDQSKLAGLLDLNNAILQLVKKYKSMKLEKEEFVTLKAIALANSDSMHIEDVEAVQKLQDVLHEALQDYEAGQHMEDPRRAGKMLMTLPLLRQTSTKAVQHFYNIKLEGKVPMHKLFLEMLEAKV
As to conditions: Coward et al. (2001); cited from earlier work.

The target in the next test is full length ERR3 (Homo sapiens, UniProt P62508). The test is described as follows: Transient transfection assay, full length ERR3 with ERE(2×)-TK-LUC reporter. Format: cell-based. Conditions: in the presence of 4-OHT. Here is the method: COS-1 and BHK cells were cultured in DMEM supplemented with 5% FCS, penicillin, streptomycin, and glutamine. Neuro2A cells were cultured in EMEM supplemented with 10% FCS, penicillin, streptomycin, glutamine, and non-essential amino acids. Transient transfection assays were carried out in 24-well plates (0.5×10^5 cells per well for COS-1 and Neuro2A cells, 0.25×10^5 cells per well for BHK cells) using the standard calcium phosphate coprecipitation technique as described in Greiner et al. (Greiner et al., 1996). Cells were transfected with 250 ng of Gal4(5×)-TATA-LUC, Gal4(3×)-TK-LUC, or ERE(2×)-TK-LUC reporter plasmid and 50 ng per well of pCMX-Gal4-ERR3 or pCMX-ERR3 expression plasmid. The empty plasmids pCMX-Gal4 and pCMX served as control. […] Luciferase activity was assayed as described in Greiner et al. (1996). All experiments were repeated at least three times. B. Results B.1.

Test [2] deals with T4, mutant ERR3 LBDs (A272F, A272L, F435L, L345I, L345I-F435L, L345I-F435L-F450L)/GST-SRC-1 RID complex (Homo sapiens, UniProt P62508, F435L).
T4 construct: wt or mutant ERR3 LBDs (residues 229 to 458, human and murine receptor are identical); made in house; host or cells: E. coli BL21(DE3)
T4 sequence (P62508 229-458 F435L): T2 sequence (P62508 229-458) with F207L
The test is described as follows: In vitro protein-protein interaction assay, mutant ERR3 LBDs with SRC-1 RID (native gels). Conditions: 10^−4M 4-OHT. Type of test: biochemical. How it is done: as §1, §2
(§3) In addition, the ligand-binding pocket of ERR3 has been enlarged by either mutating F435 to leucine or by introducing a triple point mutation (L345I-F435L-F450L) which creates an “ERα-like” ligand-binding pocket.

Test [3] has as its system mutant ERR3 LBDs (A272F, A272L, F435L, L345I, L345I-F435L, L345I-F435L-F450L)/GST-SRC-1 RID complex. Described as above. Format: biochemical, human. Here is the method:
as §1, §2, §3

As to 4-hydroxytamoxifen [4-OHT], the “binding to ERR1” value on ERR1 was “does not bind”. In addition, in test [1] (native gels), the “conformational change of the ERR3 LBD (migration on native gels)” value is “retarded”. Also, the “effect on the complex between the wt ERR3 LBD and GST-SRC-1 RID” value in test [1] (native polyacrylamide gradient gels) was “specifically disrupted”. Besides, the “transactivation / transcriptional activity mediated by ERR3” value at ERR3 is given as “repressed; also recorded: selectively block”. For the same substance, the “active repression of transcription of the TK promoter by full length ERR3” value on full length ERR3 is reported as “does not actively repress transcription”. Moreover, in test [2], the “effect on the ERR3(F435L)/GST-SRC-1 RID complex” value was “still disrupted”. In addition, the “effect on the complex between GST-SRC-1 RID and the mutants A272F or A272L” value in test [3] (10^−4M 4-OHT, ligand-binding cavity filled up) is “no effect”. Besides, in test [3] (10^−4M ligand), the “antagonist effect on ERR3 LBD mutants that contain a F435L mutation (F435L, L345I-F435L, L345I-F435L-F450L) in vitro” value is “still acts as an antagonist”.
